Results as given in PubChem BioAssay (NCI).
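All cell lines were grown in 96-well plates and treated with compound for 48 hours. TGI marks complete inhibition of growth.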

Tests used:
Test in all cases: inhibition of tumour cell growth, NCI panel, 48 h
SNB-75 CNS = system: SNB-75 CNS
IGROV1 ovarian = system: IGROV1 ovarian
SF-539 CNS = system: SF-539 CNS
SK-MEL-5 melanoma = system: SK-MEL-5 melanoma
SN12C renal = system: SN12C renal
UACC-62 melanoma = system: UACC-62 melanoma
CAKI-1 renal = system: CAKI-1 renal
UO-31 renal = system: UO-31 renal
HT29 colon = system: HT29 colon
SW-620 colon = system: SW-620 colon
PC-3 prostate = system: PC-3 prostate
NCI-H460 lung = system: NCI-H460 lung
BT-549 breast = system: BT-549 breast
HOP-62 NSCLC = system: HOP-62 NSCLC
UACC-257 melanoma = system: UACC-257 melanoma
SNB-19 CNS = system: SNB-19 CNS
A498 renal = system: A498 renal
MCF7 breast = system: MCF7 breast
K-562 leukemia = system: K-562 leukemia
HCT-15 colon = system: HCT-15 colon
ACHN renal = system: ACHN renal
MOLT-4 leukemia = system: MOLT-4 leukemia
HCT-116 colon = system: HCT-116 colon
NCI/ADR-RES ovarian = system: NCI/ADR-RES ovarian
MDA-MB-435 = system: MDA-MB-435
SF-268 CNS = system: SF-268 CNS
786-0 renal = system: 786-0 renal
KM12 colon = system: KM12 colon
OVCAR-3 ovarian = system: OVCAR-3 ovarian
SR leukemia = system: SR leukemia
CCRF-CEM leukemia = system: CCRF-CEM leukemia
NCI-H23 lung = system: NCI-H23 lung
HL-60(TB) leukemia = system: HL-60(TB) leukemia
TK-10 renal = system: TK-10 renal
SK-MEL-2 melanoma = system: SK-MEL-2 melanoma
MDA-N = system: MDA-N
MALME-3M melanoma = system: MALME-3M melanoma
SF-295 CNS = system: SF-295 CNS
HS 578T breast = system: HS 578T breast
M14 melanoma = system: M14 melanoma
SK-MEL-28 melanoma = system: SK-MEL-28 melanoma
MDA-MB-231 breast = system: MDA-MB-231 breast
RPMI-8226 leukemia = system: RPMI-8226 leukemia
DU-145 prostate = system: DU-145 prostate
COLO 205 colon = system: COLO 205 colon
LOX IMVI melanoma = system: LOX IMVI melanoma
OVCAR-5 ovarian = system: OVCAR-5 ovarian
RXF 393 renal = system: RXF 393 renal
EKVX NSCLC = system: EKVX NSCLC
SK-OV-3 ovarian = system: SK-OV-3 ovarian
U251 CNS = system: U251 CNS
OVCAR-8 ovarian = system: OVCAR-8 ovarian
NCI-H226 lung = system: NCI-H226 lung
HOP-92 NSCLC = system: HOP-92 NSCLC
T-47D breast = system: T-47D breast
NCI-H522 lung = system: NCI-H522 lung
HCC-2998 colon = system: HCC-2998 colon
OVCAR-4 ovarian = system: OVCAR-4 ovarian
A549 NSCLC = system: A549 NSCLC

S=C(c1c[nH]c2ccccc12)N1CCOCC1 gave a TGI (SNB-75 CNS) of 74 µM, a TGI (IGROV1 ovarian) of over 100 µM and a TGI (SF-539 CNS) of over 100 µM. For the same molecule, the TGI (SK-MEL-5 melanoma) was over 100 µM, the TGI (SN12C renal) was over 100 µM and the TGI (UACC-62 melanoma) was over 100 µM. For the same molecule, the TGI (CAKI-1 renal) was over 100 µM, the TGI (UO-31 renal) was over 100 µM and the TGI (HT29 colon) was over 100 µM. The TGI (SW-620 colon) was over 100 µM, the TGI (PC-3 prostate) was over 100 µM and the TGI (NCI-H460 lung) was over 100 µM. The TGI (BT-549 breast) was over 100 µM, the TGI (HOP-62 NSCLC) was over 100 µM and the TGI (UACC-257 melanoma) was over 100 µM. The TGI (SNB-19 CNS) was over 100 µM, the TGI (A498 renal) was over 100 µM and the TGI (MCF7 breast) was over 100 µM. It also gave a TGI (K-562 leukemia) of over 100 µM, a TGI (HCT-15 colon) of over 100 µM and a TGI (ACHN renal) of over 100 µM. For the same molecule, the TGI (MOLT-4 leukemia) was over 100 µM, the TGI (HCT-116 colon) was over 100 µM and the TGI (NCI/ADR-RES ovarian) was over 100 µM. The TGI (MDA-MB-435) was over 100 µM, the TGI (SF-268 CNS) was over 100 µM and the TGI (786-0 renal) was over 100 µM. It also gave a TGI (KM12 colon) of over 100 µM, a TGI (OVCAR-3 ovarian) of over 100 µM and a TGI (SR leukemia) of over 100 µM. The TGI (CCRF-CEM leukemia) was over 100 µM, the TGI (NCI-H23 lung) was over 100 µM and the TGI (HL-60(TB) leukemia) was over 100 µM. The TGI (TK-10 renal) was over 100 µM, the TGI (SK-MEL-2 melanoma) was over 100 µM and the TGI (MDA-N) was over 100 µM. For the same molecule, the TGI (MALME-3M melanoma) was over 100 µM, the TGI (SF-295 CNS) was over 100 µM and the TGI (HS 578T breast) was over 100 µM. For the same molecule, the TGI (M14 melanoma) was over 100 µM, the TGI (SK-MEL-28 melanoma) was over 100 µM and the TGI (MDA-MB-231 breast) was over 100 µM. For the same molecule, the TGI (RPMI-8226 leukemia) was over 100 µM, the TGI (DU-145 prostate) was over 100 µM and the TGI (COLO 205 colon) was over 100 µM. For the same molecule, the TGI (LOX IMVI melanoma) was over 100 µM, the TGI (OVCAR-5 ovarian) was over 100 µM and the TGI (RXF 393 renal) was over 100 µM. For the same molecule, the TGI (EKVX NSCLC) was over 100 µM, the TGI (SK-OV-3 ovarian) was over 100 µM and the TGI (U251 CNS) was over 100 µM. The TGI (OVCAR-8 ovarian) was over 100 µM and the TGI (NCI-H226 lung) was over 100 µM.

Molecule CC(=O)NC1C(OCc2ccccc2)OC(CO)C(O)C1OC(C)C(=O)NC(C)C(=O)NC(CCC(=O)NCCCNc1c2ccccc2nc2cccc([N+](=O)[O-])c12)C(N)=O (stereo not drawn) has a TGI (SNB-75 CNS) of 9.92 µM, a TGI (IGROV1 ovarian) of 72.9 µM and a TGI (HOP-92 NSCLC) of 5.8 µM. The TGI (SF-539 CNS) was 19.3 µM, the TGI (SK-MEL-5 melanoma) was 2.47 µM and the TGI (SN12C renal) was 11 µM. It also gave a TGI (UACC-62 melanoma) of 3.82 µM, a TGI (T-47D breast) of over 100 µM and a TGI (CAKI-1 renal) of 7.87 µM. For the same molecule, the TGI (UO-31 renal) was 8.3 µM, the TGI (HT29 colon) was over 100 µM and the TGI (SW-620 colon) was 11.6 µM. For the same molecule, the TGI (NCI-H460 lung) was 1.96 µM, the TGI (HOP-62 NSCLC) was 8.78 µM and the TGI (UACC-257 melanoma) was 4.71 µM. For the same molecule, the TGI (SNB-19 CNS) was over 100 µM, the TGI (A498 renal) was 6.11 µM and the TGI (MCF7 breast) was over 100 µM. For the same molecule, the TGI (NCI-H522 lung) was 4.05 µM, the TGI (K-562 leukemia) was 11.1 µM and the TGI (HCT-15 colon) was 7.3 µM. It also gave a TGI (ACHN renal) of 6.9 µM, a TGI (MOLT-4 leukemia) of over 100 µM and a TGI (HCT-116 colon) of 2.38 µM. It also gave a TGI (NCI/ADR-RES ovarian) of 65.7 µM, a TGI (MDA-MB-435) of 2.65 µM and a TGI (SF-268 CNS) of 6.32 µM. It also gave a TGI (786-0 renal) of over 100 µM, a TGI (KM12 colon) of 23.5 µM and a TGI (OVCAR-3 ovarian) of 6.53 µM. The TGI (SR leukemia) was over 100 µM, the TGI (CCRF-CEM leukemia) was over 100 µM and the TGI (NCI-H23 lung) was 11.8 µM. For the same molecule, the TGI (HL-60(TB) leukemia) was over 100 µM, the TGI (TK-10 renal) was 9.97 µM and the TGI (MDA-N) was 2.77 µM. For the same molecule, the TGI (MALME-3M melanoma) was 7.61 µM, the TGI (SF-295 CNS) was 35.2 µM and the TGI (HCC-2998 colon) was 2.52 µM. For the same molecule, the TGI (HS 578T breast) was 40.4 µM, the TGI (M14 melanoma) was 3.97 µM and the TGI (SK-MEL-28 melanoma) was 8.04 µM. For the same molecule, the TGI (MDA-MB-231 breast) was 3.26 µM, the TGI (RPMI-8226 leukemia) was over 100 µM and the TGI (COLO 205 colon) was 2.34 µM. The TGI (LOX IMVI melanoma) was 27.7 µM, the TGI (OVCAR-4 ovarian) was over 100 µM and the TGI (OVCAR-5 ovarian) was 8.02 µM. The TGI (RXF 393 renal) was 3.04 µM, the TGI (EKVX NSCLC) was 22.6 µM and the TGI (SK-OV-3 ovarian) was 34.7 µM. It also gave a TGI (U251 CNS) of 12.8 µM, a TGI (A549 NSCLC) of 11.6 µM and a TGI (OVCAR-8 ovarian) of 9.07 µM. For the same molecule, the TGI (NCI-H226 lung) was 11.2 µM.
